Earlier results on one compound are cited in patent publication US20250214928A1 (priority 2023, published 2025).

Series [1] relates to kainic acid-induced status epilepticus model. The settings on record: mouse study, ref. [5].
Series [2] deals with tumor-specific antigens (CEA, CA 19/9, CA 125, prostate-specific antigen). Particulars: meta-analysis of phase I/II trials, over 400 patients, dose-dependent, ref. [9].

In the case of `CNC(=O)[C@@H](NC(=O)[C@H](CC(C)C)[C@H](O)C(=O)NO)C(C)(C)C` [marimastat, (2R,3S)-N-1-((S)-3,3-dimethyl-1-methylamino-1-oxobutan-2-yl)-N-4,3-dihydroxy-2-isobutylsuccinamide], in series [1], the duration of seizures result was “reduced” and the number of seizures entry is given as “reduced”. In addition, in series [2], the “growth indicators of tumor-specific antigens (all four)” value was “significantly reduced”.
